Columns and labels:
HT29 colon cancer cells = assay: Tumoursphere formation in 96-well, HT29; assay type: cell-based, human; details: 5 days; for Number of wells with sphere: HT29, 3 μM Dox equivalent
Experimental: Under non-adherent and serum-free conditions, only the cancer stem cells (CSCs) and progenitor cells survive and undergo self-renewal as well as proliferate to form tumour spheres. The inventor studied the ability of aptamer-Dox to target cancer stem cells by plating various cell doses of single-cell suspension of HT29 colon cancer cells in ultra-low attachment 96-wells in the presence of 3 μM of free Dox, 3 μM equivalent Dox conjugated with aptamer, 3 μM Dox-negative control aptamer or vehicle control for 5 days. Tumour spheres (with a size >50 μm) were enumerated.

[1] = tested on: PLC/PRF/5 hepatocellular carcinoma cell line; assay: Tumoursphere formation in 96-well, PLC/PRF/5; assay type: cell-based, human
HT29 spheres = assay: FACS analysis of CSC markers in treated HT29 spheres; assay type: cell-based, human; details: HT29 spheres after treatment
From the text: Salinomycin (Sal), known to target CSC^23, was used as a positive control to validate our assays.

HT29 cells = assay: Tumour formation ex vivo: in vitro treated HT29 cells xenotransplanted; parameters: species or system NOD/SCID mice; details: cells treated 3 μM, 5 days, Day 50
From the text: As sphere formation is a surrogate assay for in vivo tumourigenicity, the inventor examined whether the in vitro treated cells could generate tumours upon xenotransplantation. […] As shown in FIG. 12 and Table 4, free Dox-treated cells formed tumours in every mouse studied but no tumour was detected in mice cells (Table 4) at Day 50 after receiving aptamer-Dox-treated tumour implantation.

HT29 cell populations = assay: Extreme limiting dilution/xenotransplantation assay (ELDA) of treated HT29 tumours; assay type: in vivo, NOD/SCID mice; details: 9 weeks after inoculation
From the text: The inventor first studied whether the aptamer-Dox conjugate could efficiently target tumour in vivo via live animal imaging with an on-site IVIS Lumina II imaging station. […] The ability of aptamer-Dox to target CSC was further tested in vivo using the gold standard extreme limiting dilution/xenotransplantation assay (ELDA). To this end, the inventor injected 1×10^6 HT29 cells s.c. into NOD/SCID mice. When tumours reached a size of 3 mm, the mice were randomized and treated serially for 3 days at a daily dose of 5 mg/Kg of either free Dox, EpCAM aptamer-Dox or control aptamer-Dox via tail vein injection. Mice were sacrificed one week after the last treatment. […] The experiment as repeated and single cell suspensions prepared from the treated tumours (as in FIG. 14) and ELDA (Extreme limiting dilution analysis) performed to assess the effect on CSC frequency.

MCF7/ADR cells = assay: Tumourigenicity ex vivo: treated MCF7/ADR cells xenotransplanted, extreme limiting dilution; assay type: in vivo, NOD/SCID mice; details: 20 nM chimera, 300 nM Dox, Day 40
Experimental: The inventor hypothesized that the CSC-targeted delivery of survivin siRNA would make CSC sensitive to Dox. Indeed, after treatment (without transfection reagent) with 20 nM chimera plus 300 nM Dox for 72 h, there was a ˜80% reduction in the number of mammospheres in both the first and second round of tumoursphere assays (not shown), indicating a significant portion of cancer stem cells had been eliminated. The inventor further confirmed the effect of the chimera plus Dox on cancer stem cells' tumourigenicity by xenotransplanting treated cells into the 4th inguinal mammary fat pads of NOD/SCID mice coupled with an extreme limiting dilution analysis to assess CSC frequency (at Day 40 alter implantation) (Table 6).

MCF-7/ADR tumours = assay: CSC marker status in in vivo treated MCF-7/ADR tumours (flow cytometry); parameters: species or system mice; details: treated 3 times in a week; 1 nmol PEG-chimera, 5 mg/kg doxorubicin; n=8
Experimental: A 20-kDa PEG was attached to the 5′-end of siRNA-aptamer-chimera in order to extend its systemic circulation time. […] Day 2 after the last (third) treatment, tumours were removed, its weight determined and the percentage of breast cancer stem cell marker (EpCAM^+/CD44^+/CD24^−) positive cells in the treatment groups and various control groups was studied via flow cytometray.
MCF-7/ADR tumours ([…]) were treated 3 times in a week with 1 nmol PEG-chimera+5 mg/kg doxorubicin. Single cell suspension was prepared for flow cytometry (n=8). Remarks

MCF7/ADR tumour = assay: Xenotransplantation-LDA of in vivo treated MCF7/ADR tumours; details: 1 nmole chimera, 5 mg/kg Dox, Day 50
Experimental: An orthotopic breast cancer model was established by implanting 3×10^6 MCF7/ADR cells (mixed with Matrigel) per site in NOD-SCID mice. When tumours reached a volume of ˜200 mm^3, we started treatment via tail vein injection. The mice (n=5) were treated at Day 1, 3, 5, with i.v. (bolus) injection of 1 nmole of EpCAM aptamer-siRNA chimera; and Day 2, 4, 6, with i.v. (bolus) injection of 5 mg/kg doxorubicin. The animals were euthanized on Day 10 and tumours harvested and subjected to xenotransplantation and in vivo extreme limiting dilution analysis.

COc1cccc2c1C(=O)c1c(O)c3c(c(O)c1C2=O)C[C@@](O)(C(=O)CO)C[C@@H]3O[C@H]1C[C@H](N)[C@H](O)[C@H](C)O1 [Free Dox, doxorubicin]
effect on HT29 tumour sphere formation (in words) (HT29 colon cancer cells; 3 μM Dox): no effect
Number of wells with sphere (HT29 colon cancer cells; 1 cell seeded/well): 0/10
Number of wells with sphere (HT29 colon cancer cells; 10 cells seeded/well): 10/10
Number of wells with sphere (HT29 colon cancer cells; 100 cells seeded/well): 10/10
Number of wells with sphere (HT29 colon cancer cells; 200 cells seeded/well): 10/10
Number of wells with sphere ([1]; 1 cell seeded/well): 0/10
Number of wells with sphere ([1]; 10 cells seeded/well): 10/10
Number of wells with sphere ([1]; 100 cells seeded/well): 10/10
Number of wells with sphere ([1]; 200 cells seeded/well): 10/10
EpCAM^high/CD44^high/CD24^high cells (HT29 spheres): 91%
No. tumour/No. mice (HT29 cells; 1 × 10^5 cells injected): 5/5
No. tumour/No. mice (HT29 cells; 1 × 10^6 cells injected): 5/5
No. tumour/No. mice (HT29 cell populations; 1 × 10^4 cells injected): 0/6
No. tumour/No. mice (HT29 cell populations; 1 × 10^5 cells injected): 6/6
No. tumour/No. mice (HT29 cell populations; 1 × 10^6 cells injected): 6/6
No. of tumours/no. of mice (MCF7/ADR cells; 0.5 × 10^6 cells injected): 0/5
No. of tumours/no. of mice (MCF7/ADR cells; 1 × 10^6 cells injected): 1/5
No. of tumours/no. of mice (MCF7/ADR cells; 3 × 10^6 cells injected): 3/5
No. of tumours/no. of mice (MCF7/ADR cells; 5 × 10^6 cells injected): 5/5
Percentage EpCAM+/CD44+/CD24− (MCF-7/ADR tumours): 11.6
No. of tumours/no. of mice (MCF7/ADR tumour; 0.5 × 10^6 cells injected): 0/4
No. of tumours/no. of mice (MCF7/ADR tumour; 1 × 10^6 cells injected): 1/4
No. of tumours/no. of mice (MCF7/ADR tumour; 3 × 10^6 cells injected): 3/4
No. of tumours/no. of mice (MCF7/ADR tumour; 5 × 10^6 cells injected): 4/4
